In PubChem BioAssay AID306 (DTP/NCI, 2004):
Values joined by “and” are separate entries in the source; they are usually repeats but may differ in a detail not shown here. Equal entries are not always repeated. Inconclusive results and toxic doses are left out.

Test system: BDF1 mice, L1210 Methyl-GAG-resistant leukemia, survival T/C
Experiment: NCI In Vivo Anticancer Drug Screen. Data for tumor model L1210 Leukemia resistant to Methyl-GAG; NSC 32946 (subcutaneous) in B6D2F1 (BDF1) mice
Conditions: endpoint: mean survival time, higher = longer survival
Procedure: The antitumor activity of compounds was measured in mice bearing transplantable tumors. Survival or tumor size were measured and the results are expressed as the measurement made in the treated group (T) divided by the measurement made in the vehicle treated control group (C). The tumor model used in this assay is L1210 Leukemia resistant to Methyl-GAG; NSC 32946 (subcutaneous) in B6D2F1 (BDF1) mice

[1] = dose: 12.5 mg/kg/injection, schedule: Q01DX Z (ip), vehicle: carboxymethylcellulose (CMC)
[2] = dose: 50.0 mg/kg/injection, schedule: Q01DX Z (ip), vehicle: carboxymethylcellulose (CMC)
[3] = dose: 100.0 mg/kg/injection, schedule: Q01DX Z (ip), vehicle: carboxymethylcellulose (CMC)
[4] = dose: 25.0 mg/kg/injection, schedule: Q01DX Z (ip), vehicle: carboxymethylcellulose (CMC)
[5] = dose: 200.0 mg/kg/injection, schedule: Q01DX Z (ip), vehicle: carboxymethylcellulose (CMC)
[6] = dose: 400.0 mg/kg/injection, schedule: Q01DX Z (ip), vehicle: carboxymethylcellulose (CMC)
[7] = dose: 0.5 mg/kg/injection, schedule: Q01DX Z (ip), vehicle: carboxymethylcellulose (CMC)
[8] = dose: 1.0 mg/kg/injection, schedule: Q01DX Z (ip), vehicle: carboxymethylcellulose (CMC)
[9] = dose: 1.0 mg/kg/injection, schedule: Q01DX Z (ip), vehicle: saline

SMILES: CN(C)c1ccc(/C=C\c2ccnc3ccccc23)cc1
- T/C (dose: 0.4 mg/kg/injection, schedule: Q01DX Z (ip), vehicle: water): 97 % of control and 107 % of control
- T/C (dose: 0.8 mg/kg/injection, schedule: Q01DX Z (ip), vehicle: water): 89 % of control and 105 % of control
- T/C (dose: 1.6 mg/kg/injection, schedule: Q01DX Z (ip), vehicle: water): 104 % of control
- T/C (dose: 3.1 mg/kg/injection, schedule: Q01DX Z (ip), vehicle: water): 101 % of control
- T/C (dose: 6.25 mg/kg/injection, schedule: Q01DX Z (ip), vehicle: water): 90 % of control
- T/C (dose: 12.5 mg/kg/injection, schedule: Q01DX Z (ip), vehicle: water): 95 % of control
- T/C (dose: 25.0 mg/kg/injection, schedule: Q01DX Z (ip), vehicle: water): 104 % of control
- T/C (dose: 50.0 mg/kg/injection, schedule: Q01DX Z (ip), vehicle: water): 97 % of control and 107 % of control

SMILES: CN(Cc1cnc2nc(N)nc(N)c2n1)c1c(Cl)cc(C(=O)NC(CCC(=O)O)C(=O)O)cc1Cl (centres undefined)
- T/C [1]: 116 % of control
- T/C [2]: 195 % of control
- T/C [3]: 317 % of control

SMILES: O=C(Nc1ccc(C2=NCCN2)cc1)c1ccc(C(=O)Nc2ccc(C3=NCCN3)cc2)cc1
- T/C [4]: 98 % of control
- T/C [2]: 98 % of control
- T/C [3]: 124 % of control
- T/C [5]: 236 % of control
- T/C [6]: 104 % of control

SMILES: O[C@H](CN1CC1)[C@@H](O)CN1CC1
- T/C (dose: 0.06 mg/kg/injection, schedule: Q01DX Z (ip), vehicle: carboxymethylcellulose (CMC)): 97 % of control
- T/C (dose: 0.12 mg/kg/injection, schedule: Q01DX Z (ip), vehicle: carboxymethylcellulose (CMC)): 110 % of control
- T/C [7]: 170 % of control and 178 % of control
- T/C [8]: 100 % of control
- T/C (dose: 63.0 micrograms/kg/injection, schedule: Q01DX Z (ip), vehicle: carboxymethylcellulose (CMC)): 101 % of control
- T/C (dose: 125.0 micrograms/kg/injection, schedule: Q01DX Z (ip), vehicle: carboxymethylcellulose (CMC)): 109 % of control

SMILES: CCn1cnc2c(=S)nc[nH]c21
- T/C (dose: 8.0 mg/kg/injection, schedule: Q01DX Z (ip), vehicle: carboxymethylcellulose (CMC)): 113 % of control
- T/C (dose: 16.0 mg/kg/injection, schedule: Q01DX Z (ip), vehicle: carboxymethylcellulose (CMC)): 106 % of control
- T/C (dose: 31.0 mg/kg/injection, schedule: Q01DX Z (ip), vehicle: carboxymethylcellulose (CMC)): 120 % of control

SMILES: CCC(=O)O[C@H]1CC[C@H]2[C@@H]3CCC4=CC(=O)CC[C@]4(C)[C@H]3CC[C@]12C
- T/C (dose: 37.5 mg/kg/injection, schedule: Q01DX Z (sc), vehicle: steriod suspending solution): 101 % of control
- T/C (dose: 60.0 mg/kg/injection, schedule: Q01DX Z (sc), vehicle: steriod suspending solution): 120 % of control
- T/C (dose: 75.0 mg/kg/injection, schedule: Q01DX Z (sc), vehicle: steriod suspending solution): 104 % of control
- T/C (dose: 150.0 mg/kg/injection, schedule: Q01DX Z (sc), vehicle: steriod suspending solution): 98 % of control
- T/C (dose: 300.0 mg/kg/injection, schedule: Q01DX Z (sc), vehicle: steriod suspending solution): 98 % of control and 119 % of control
- T/C (dose: 1500.0 mg/kg/injection, schedule: Q01DX Z (sc), vehicle: steriod suspending solution): 96 % of control

SMILES: O=NN(CCCl)C(=O)NCCCl
- T/C [9]: 122 % of control
- T/C (dose: 2.0 mg/kg/injection, schedule: Q01DX Z (ip), vehicle: saline): 155 % of control
- T/C (dose: 4.0 mg/kg/injection, schedule: Q01DX Z (ip), vehicle: saline): 202 % of control
- T/C (dose: 8.0 mg/kg/injection, schedule: Q01DX Z (ip), vehicle: saline): 172 % of control
- T/C (dose: 16.0 mg/kg/injection, schedule: Q01DX Z (ip), vehicle: saline): 92 % of control
- T/C (dose: 32.0 mg/kg/injection, schedule: Q01DX Z (ip), vehicle: saline): 92 % of control

SMILES: CSCS(=O)C[C@H](CO)NC(=O)/C=C/c1c(C)[nH]c(=O)[nH]c1=O (some centres undefined)
- T/C (dose: 0.06 mg/kg/injection, schedule: Q01DX Z (ip), vehicle: saline): 97 % of control
- T/C (dose: 0.12 mg/kg/injection, schedule: Q01DX Z (ip), vehicle: saline): 97 % of control
- T/C (dose: 0.25 mg/kg/injection, schedule: Q01DX Z (ip), vehicle: saline): 106 % of control and 113 % of control
- T/C (dose: 0.5 mg/kg/injection, schedule: Q01DX Z (ip), vehicle: saline): 112 % of control
- T/C [9]: 96 % of control

SMILES: NC(=O)N(CCCl)N=O
- T/C [7]: 95 % of control
- T/C [8]: 96 % of control and 101 % of control
- T/C (dose: 2.0 mg/kg/injection, schedule: Q01DX Z (ip), vehicle: carboxymethylcellulose (CMC)): 100 % of control and 101 % of control

SMILES: CS(=O)(=O)OCCCl
- T/C [1]: 89 % of control
- T/C [4]: 96 % of control
- T/C [2]: 92 % of control
- T/C [3]: 113 % of control

SMILES: C=CC(CN1CC1)OC(C)=O (centres undefined)
- T/C (dose: 0.95 mg/kg/injection, schedule: Q01DX Z (ip), vehicle: carboxymethylcellulose (CMC)): 100 % of control
- T/C (dose: 1.9 mg/kg/injection, schedule: Q01DX Z (ip), vehicle: carboxymethylcellulose (CMC)): 118 % of control
- T/C (dose: 3.8 mg/kg/injection, schedule: Q01DX Z (ip), vehicle: carboxymethylcellulose (CMC)): 118 % of control
- T/C (dose: 7.5 mg/kg/injection, schedule: Q01DX Z (ip), vehicle: carboxymethylcellulose (CMC)): 120 % of control

SMILES: CN(C)c1nc(N(C)C)nc(N(C)C)n1
- T/C (dose: 62.5 mg/kg/injection, schedule: Q01DX Z (ip), vehicle: carboxymethylcellulose (CMC)): 100 % of control
- T/C (dose: 125.0 mg/kg/injection, schedule: Q01DX Z (ip), vehicle: carboxymethylcellulose (CMC)): 95 % of control
- T/C (dose: 250.0 mg/kg/injection, schedule: Q01DX Z (ip), vehicle: carboxymethylcellulose (CMC)): 100 % of control
- T/C (dose: 500.0 mg/kg/injection, schedule: Q01DX Z (ip), vehicle: carboxymethylcellulose (CMC)): 100 % of control
- T/C (dose: 1000.0 mg/kg/injection, schedule: Q01DX Z (ip), vehicle: methylcellulose (MC)): 98 % of control

SMILES: CN(C)CC(=O)c1ccc(O)c(O)c1
- T/C (dose: 31.25 mg/kg/injection, schedule: Q01DX Z (ip), vehicle: saline): 98 % of control
- T/C (dose: 62.5 mg/kg/injection, schedule: Q01DX Z (ip), vehicle: saline): 96 % of control
- T/C (dose: 125.0 mg/kg/injection, schedule: Q01DX Z (ip), vehicle: saline): 99 % of control
- T/C (dose: 250.0 mg/kg/injection, schedule: Q01DX Z (ip), vehicle: saline): 99 % of control and 100 % of control
- T/C (dose: 500.0 mg/kg/injection, schedule: Q01DX Z (ip), vehicle: saline): 97 % of control and 106 % of control

SMILES: C[C@]12CCC(=O)C=C1CC[C@@H]1[C@@H]2C(=O)C[C@@]2(C)[C@H]1CC[C@]2(O)C(=O)CO
- T/C (dose: 6.25 mg/kg/injection, schedule: Q01DX Z (sc), vehicle: steriod suspending solution): 100 % of control
- T/C (dose: 25.0 mg/kg/injection, schedule: Q01DX Z (sc), vehicle: steriod suspending solution): 102 % of control
- T/C (dose: 62.5 mg/kg/injection, schedule: Q01DX Z (sc), vehicle: steriod suspending solution): 121 % of control
- T/C (dose: 100.0 mg/kg/injection, schedule: Q01DX Z (sc), vehicle: steriod suspending solution): 113 % of control
- T/C (dose: 400.0 mg/kg/injection, schedule: Q01DX Z (sc), vehicle: steriod suspending solution): 116 % of control

SMILES: Nc1ncnc2c1ccn2C1OC(CO)C(O)C1O (centres undefined)
- T/C (dose: 0.31 mg/kg/injection, schedule: Q01DX Z (ip), vehicle: carboxymethylcellulose (CMC)): 89 % of control and 97 % of control
- T/C (dose: 0.63 mg/kg/injection, schedule: Q01DX Z (ip), vehicle: carboxymethylcellulose (CMC)): 91 % of control and 102 % of control
- T/C (dose: 1.25 mg/kg/injection, schedule: Q01DX Z (ip), vehicle: carboxymethylcellulose (CMC)): 97 % of control and 112 % of control
- T/C (dose: 2.5 mg/kg/injection, schedule: Q01DX Z (ip), vehicle: carboxymethylcellulose (CMC)): 94 % of control

SMILES: CCN(CC)CCNc1ccc(C)c2sc3ccccc3c(=O)c12
- T/C (dose: 1.56 mg/kg/injection, schedule: Q01DX Z (ip), vehicle: methylcellulose (MC)): 97 % of control
- T/C (dose: 6.25 mg/kg/injection, schedule: Q01DX Z (ip), vehicle: methylcellulose (MC)): 102 % of control
- T/C (dose: 12.5 mg/kg/injection, schedule: Q01DX Z (ip), vehicle: methylcellulose (MC)): 104 % of control
- T/C (dose: 25.0 mg/kg/injection, schedule: Q01DX Z (ip), vehicle: methylcellulose (MC)): 103 % of control and 113 % of control
- T/C (dose: 50.0 mg/kg/injection, schedule: Q01DX Z (ip), vehicle: methylcellulose (MC)): 119 % of control
- T/C (dose: 100.0 mg/kg/injection, schedule: Q01DX Z (ip), vehicle: methylcellulose (MC)): 151 % of control

SMILES: CC(=O)Nc1ccc2nc3ccc(NC(C)=O)cc3[n+](-c3ccccc3)c2c1
- T/C [1]: 97 % of control
- T/C [4]: 97 % of control
- T/C [2]: 113 % of control
- T/C [3]: 98 % of control
- T/C [5]: 88 % of control
- T/C [6]: 93 % of control
